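Step 1: Grow cells in 96-well plates. Step 2: Expose to compound for 48 hours at 5 concentrations. Step 3: Interpolate endpoints linearly; if unreached, use highest concentration. At the GI50, growth is halved.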 The source made the active and inactive calls. No stated cut-off is given here; in the data, active = GI50 up to about 1.1 µM and inactive = higher.
Tests used:
Assay in all cases: inhibition of tumour cell growth, NCI panel, 48 h
[1] = tested on: 786-0
[2] = tested on: A498
[3] = tested on: A549
[4] = tested on: ACHN
[5] = tested on: BT-549
[6] = tested on: CAKI-1
[7] = tested on: CCRF-CEM
[8] = tested on: COLO 205
[9] = tested on: DU-145
[10] = tested on: EKVX
[11] = tested on: HCC 2998
[12] = tested on: HCT-116
[13] = tested on: HCT-15
[14] = tested on: HOP-62
[15] = tested on: HT-29
[16] = tested on: Hs-578T
[17] = tested on: KM12
[18] = tested on: M14
[19] = tested on: MCF7
[20] = tested on: MDA-MB-231
[21] = tested on: MDA-MB-435
[22] = tested on: MDA-N
[23] = tested on: MOLT-4
[24] = tested on: Malme-3M
[25] = tested on: NCI-H226
[26] = tested on: NCI-H23
[27] = tested on: NCI-H460
[28] = tested on: NCI/ADR-RES
[29] = tested on: OVCAR-3
[30] = tested on: OVCAR-4
[31] = tested on: OVCAR-5
[32] = tested on: OVCAR-8
[33] = tested on: PC-3
[34] = tested on: RPMI-8226
[35] = tested on: SF-268
[36] = tested on: SF-295
[37] = tested on: SF-539
[38] = tested on: SK-MEL-28
[39] = tested on: SK-MEL-2
[40] = tested on: SK-OV-3
[41] = tested on: SN12C
[42] = tested on: SNB-19
[43] = tested on: SNB-75
[44] = tested on: SW-620
[45] = tested on: T47D
[46] = tested on: U-251
[47] = tested on: UACC-257
[48] = tested on: UACC-62
[49] = tested on: UO-31
[50] = tested on: HOP-92
[51] = tested on: IGROV-1
[52] = tested on: LOX IMVI
[53] = tested on: NCI-H522
[54] = tested on: SK-MEL-5
[55] = tested on: TK-10

In the case of `O=[N+]([O-])C(/C(Cl)=C(/Cl)N1CCCCC1)=C1\NCCO1`, the GI50 [1] is reported as > 100 µM (inactive), the GI50 [2] is reported as > 100 µM (inactive) and the GI50 [3] is reported as > 100 µM (inactive). For the same compound, the GI50 [4] was > 100 µM (inactive), the GI50 [5] was > 100 µM (inactive) and the GI50 [6] was > 100 µM (inactive). For the same compound, the GI50 [7] was > 100 µM (inactive), the GI50 [8] was > 100 µM (inactive) and the GI50 [9] was > 100 µM (inactive). The GI50 [10] was > 100 µM (inactive), the GI50 [11] was > 100 µM (inactive) and the GI50 [12] was > 100 µM (inactive). For the same compound, the GI50 [13] was over 100 µM, the GI50 [14] was > 100 µM (inactive) and the GI50 [15] was > 100 µM (inactive). The GI50 [16] was > 100 µM (inactive), the GI50 [17] was > 100 µM (inactive) and the GI50 [18] was > 100 µM (inactive). The GI50 [19] was > 100 µM (inactive), the GI50 [20] was > 100 µM (inactive) and the GI50 [21] was > 100 µM (inactive). The GI50 [22] was > 100 µM (inactive), the GI50 [23] was > 100 µM (inactive) and the GI50 [24] was > 100 µM (inactive). For the same compound, the GI50 [25] was > 100 µM (inactive), the GI50 [26] was > 100 µM (inactive) and the GI50 [27] was > 100 µM (inactive). For the same compound, the GI50 [28] was > 100 µM (inactive), the GI50 [29] was > 100 µM (inactive) and the GI50 [30] was > 100 µM (inactive). For the same compound, the GI50 [31] was > 100 µM (inactive), the GI50 [32] was > 100 µM (inactive) and the GI50 [33] was > 100 µM (inactive). For the same compound, the GI50 [34] was > 100 µM (inactive), the GI50 [35] was > 100 µM (inactive) and the GI50 [36] was > 100 µM (inactive). The GI50 [37] was > 100 µM (inactive), the GI50 [38] was > 100 µM (inactive) and the GI50 [39] was > 100 µM (inactive). The GI50 [40] was > 100 µM (inactive), the GI50 [41] was > 100 µM (inactive) and the GI50 [42] was > 100 µM (inactive). The GI50 [43] was > 100 µM (inactive), the GI50 [44] was > 100 µM (inactive) and the GI50 [45] was > 100 µM (inactive). The GI50 [46] was > 100 µM (inactive), the GI50 [47] was > 100 µM (inactive) and the GI50 [48] was > 100 µM (inactive). The GI50 [49] was > 100 µM (inactive).
In the case of `Brc1cccc(Nc2ncnc3sc4c(c23)CCC2(C4)OCCO2)c1`, the GI50 [1] is reported as 25.7 µM (inactive), the GI50 [2] is reported as 15.3 µM (inactive) and the GI50 [3] is reported as 80 µM (inactive). For the same compound, the GI50 [4] was 4.68 µM (inactive), the GI50 [5] was 27.5 µM (inactive) and the GI50 [6] was 10.5 µM (inactive). For the same compound, the GI50 [8] was 18 µM (inactive), the GI50 [9] was 7.28 µM (inactive) and the GI50 [10] was 19.3 µM (inactive). For the same compound, the GI50 [11] was 23.7 µM (inactive), the GI50 [12] was 27.2 µM (inactive) and the GI50 [13] was 25.4 µM. For the same compound, the GI50 [14] was 52.4 µM (inactive), the GI50 [50] was 10.7 µM (inactive) and the GI50 [15] was 45.4 µM (inactive). For the same compound, the GI50 [16] was 28.4 µM (inactive), the GI50 [51] was 8.73 µM (inactive) and the GI50 [17] was 24 µM (inactive). For the same compound, the GI50 [52] was 18.6 µM (inactive), the GI50 [18] was 31.1 µM (inactive) and the GI50 [19] was 28.3 µM (inactive). For the same compound, the GI50 [20] was 87.1 µM (inactive), the GI50 [21] was 28.2 µM (inactive) and the GI50 [22] was 33.6 µM (inactive). For the same compound, the GI50 [24] was 39.2 µM (inactive), the GI50 [25] was 18.6 µM (inactive) and the GI50 [26] was 29.8 µM (inactive). For the same compound, the GI50 [27] was 33.3 µM (inactive), the GI50 [53] was 12.3 µM (inactive) and the GI50 [28] was 22.3 µM (inactive). For the same compound, the GI50 [29] was 28.4 µM (inactive), the GI50 [30] was 20.1 µM (inactive) and the GI50 [31] was > 100 µM (inactive). The GI50 [32] was 24.5 µM (inactive), the GI50 [33] was 33.7 µM (inactive) and the GI50 [35] was 27.6 µM (inactive). For the same compound, the GI50 [36] was 32.5 µM (inactive), the GI50 [39] was 33 µM (inactive) and the GI50 [54] was 15.8 µM (inactive). The GI50 [40] was 32.1 µM (inactive), the GI50 [41] was 27.4 µM (inactive) and the GI50 [42] was 34.3 µM (inactive). For the same compound, the GI50 [43] was 23.1 µM (inactive), the GI50 [44] was 0.0203 µM (active) and the GI50 [45] was 5.61 µM (inactive). For the same compound, the GI50 [55] was 7.73 µM (inactive), the GI50 [46] was 35.6 µM (inactive) and the GI50 [47] was 26.7 µM (inactive). The GI50 [48] was 22.9 µM (inactive) and the GI50 [49] was 2.07 µM (inactive).

From ChEMBL document CHEMBL1201862, “PubChem BioAssay data set” (2004)
